pIC50: −log10 of the molar value.
Target: GCN2 (Homo sapiens, UniProt Q9P2K8)
Test: GCN2 enzymatic endpoint assay: phosphorylation of GFP-eIF2α measured by TR-FRET (Lanthascreen)
Assay type: biochemical
Settings: tested as described in Example 77; compound and/or hydrochloride, dihydrochloride or trifluoroacetic acid salt; read-out: IC 50 Activity
Summary of the method: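 Kinase activity is measured as phosphorylation of GFP-labelled eIF2α (80 nM) with ATP at 2 μM. Incubation runs 90 minutes at room temperature before EDTA quench and terbium-antibody detection.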

GCN2, sequence (Q9P2K8 whole entry): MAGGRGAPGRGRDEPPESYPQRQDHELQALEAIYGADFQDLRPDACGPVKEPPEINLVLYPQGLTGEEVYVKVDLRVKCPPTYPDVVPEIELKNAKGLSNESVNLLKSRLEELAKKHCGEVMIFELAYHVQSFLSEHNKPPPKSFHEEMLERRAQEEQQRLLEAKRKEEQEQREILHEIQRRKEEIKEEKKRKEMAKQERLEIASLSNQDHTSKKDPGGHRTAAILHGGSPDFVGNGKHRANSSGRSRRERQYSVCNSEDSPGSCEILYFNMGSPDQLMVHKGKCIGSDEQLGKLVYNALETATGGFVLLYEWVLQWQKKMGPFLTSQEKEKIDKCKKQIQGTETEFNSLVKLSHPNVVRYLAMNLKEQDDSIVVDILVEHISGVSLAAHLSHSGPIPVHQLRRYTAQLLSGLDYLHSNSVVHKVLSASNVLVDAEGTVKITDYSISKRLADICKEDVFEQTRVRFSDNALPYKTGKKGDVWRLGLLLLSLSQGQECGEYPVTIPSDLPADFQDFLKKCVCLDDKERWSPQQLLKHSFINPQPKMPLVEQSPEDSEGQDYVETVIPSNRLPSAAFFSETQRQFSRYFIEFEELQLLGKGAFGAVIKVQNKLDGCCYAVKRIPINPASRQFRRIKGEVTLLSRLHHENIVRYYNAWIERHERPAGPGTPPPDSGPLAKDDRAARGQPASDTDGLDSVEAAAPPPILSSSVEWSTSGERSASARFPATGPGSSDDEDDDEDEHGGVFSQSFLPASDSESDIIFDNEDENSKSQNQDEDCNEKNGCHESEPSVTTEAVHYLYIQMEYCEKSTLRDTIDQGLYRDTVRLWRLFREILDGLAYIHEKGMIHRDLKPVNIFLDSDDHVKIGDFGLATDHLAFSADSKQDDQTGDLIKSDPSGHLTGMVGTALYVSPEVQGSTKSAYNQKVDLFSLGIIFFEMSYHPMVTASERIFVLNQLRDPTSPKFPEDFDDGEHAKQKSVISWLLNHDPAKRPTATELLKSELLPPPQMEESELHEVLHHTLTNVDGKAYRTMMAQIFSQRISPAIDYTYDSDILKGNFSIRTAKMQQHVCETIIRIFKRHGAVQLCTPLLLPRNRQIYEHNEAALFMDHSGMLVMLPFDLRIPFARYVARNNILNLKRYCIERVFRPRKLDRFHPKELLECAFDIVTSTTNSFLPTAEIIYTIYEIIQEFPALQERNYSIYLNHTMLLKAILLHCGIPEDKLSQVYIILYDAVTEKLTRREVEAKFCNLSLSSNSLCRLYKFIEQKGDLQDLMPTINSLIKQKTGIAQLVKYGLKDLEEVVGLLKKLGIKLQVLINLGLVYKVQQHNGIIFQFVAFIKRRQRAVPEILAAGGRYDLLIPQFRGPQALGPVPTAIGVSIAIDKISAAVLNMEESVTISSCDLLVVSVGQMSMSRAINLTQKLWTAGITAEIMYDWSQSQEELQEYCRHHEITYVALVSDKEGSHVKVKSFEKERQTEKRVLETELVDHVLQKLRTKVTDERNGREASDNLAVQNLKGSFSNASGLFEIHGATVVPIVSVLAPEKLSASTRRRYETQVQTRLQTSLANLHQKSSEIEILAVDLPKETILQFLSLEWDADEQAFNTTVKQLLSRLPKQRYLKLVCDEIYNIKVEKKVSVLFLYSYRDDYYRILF

| SMILES | pIC50 |
| --- | --- |
| CNC(=O)[C@]1(C)CC[C@@H](Nc2ncc3c(Br)nn(-c4ccc(-c5nnc(C)s5)nc4)c3n2)C1 | 6.70 to 7.60 |
| CNC(=O)[C@]1(C)CC[C@@H](Nc2ncc3c(Br)nn(-c4ccc(-c5ncco5)c(CCN)c4)c3n2)C1 [(1R,3R)-3-[[1-[3-(2-aminoethyl)-4-oxazol-2-yl-phenyl]-3-bromo-pyrazolo[3,4-d]pyrimidin-6-yl]amino]-N,1-dimethyl-cyclopentanecarboxamide] | 6.70 to 7.60 |
| CS(=O)(=O)CCNC(=O)[C@@H]1CC[C@@H](Nc2ncc3c(Br)nn(-c4cnn(-c5ccncc5)c4)c3n2)C1 [(1R,3R)-3-((3-bromo-1-(1-(pyridin-4-yl)-1H-pyrazol-4-yl)-1H-pyrazolo[3,4-d]pyrimidin-6-yl)amino)-N-(2-(methylsulfonyl)ethyl)cyclo-pentane-1-carboxamide] | 6.30 to 6.70 |
| Cc1nnc(-c2ccc(-n3nc(Br)c4cnc(N[C@@H]5CC[C@@](C)(C(=O)NC6CC6)C5)nc43)cc2CCC#N)s1 [(1R,3R)-3-[[3-bromo-1-[3-(2-cyanoethyl)-4-(5-methyl-1,3,4-thiadiazol-2-yl)phenyl]pyrazolo[3,4-d]pyrimidin-6-yl]amino]-N-cyclopropyl-1-methyl-cyclopentane-carboxamide] | 6.70 to 7.60 |
| CNS(=O)(=O)C1CC[C@@H](Nc2ncc3c(Br)nn(-c4ccc(-c5nnc(C)s5)cc4)c3n2)C1 (stereo partly drawn) [(3R)-3-[[3-bromo-1-[4-(5-methyl-1,3,4-thiadiazol-2-yl)phenyl]pyrazolo[3,4-d]pyrimidin-6-yl]amino]-N-methyl-cyclopentanesulfonamide] | 6.70 to 7.60 |
| C=CC(=O)NCCc1cc(-n2nc(Br)c3cnc(N[C@@H]4CC[C@@](C)(C(=O)NC)C4)nc32)cc2cccnc12 [(1R,3R)-3-[[3-bromo-1-[8-[2-(prop-2-enoylamino)ethyl]-6-quinolyl]pyrazolo [3,4-d]pyrimidin-6-yl]amino]-N,1-dimethyl-cyclopentanecarboxamide] | 6.70 to 7.60 |
| CNC(=O)[C@]1(C)CC[C@@H](Nc2ncc3c(Br)nn(-c4cc(C)c(C#N)c(C)c4)c3n2)C1 [(1R,3R)-3-[[3-bromo-1-(4-cyano-3,5-dimethyl-phenyl)pyrazolo[3,4-d]pyrimidin-6-yl]amino]-N,1-dimethyl-cyclopentanecarboxamide] | 6.70 to 7.60 |
| CNC(=O)[C@]1(C)CC[C@@H](Nc2ncc3c(Br)nn(-c4ccc5ncc(NC(=O)CCN)cc5c4)c3n2)C1 [(1R,3R)-3-[[1-[3-(3-aminopropanoylamino)-6-quinolyl]-3-bromo-pyrazolo[3,4-d]pyrimidin-6-yl]amino]-N,1-dimethyl-cyclopentanecarboxamide] | > 7.60 |
| C[C@@H]1CN(C(=O)[C@@H]2CC[C@@H](Nc3ncc4c(Br)nn(-c5ccc6ncccc6c5)c4n3)C2)C[C@@H](C)O1 [((1R,3R)-3-((3-bromo-1-(quinolin-6-yl)-1H-pyrazolo[3,4-d]pyrimidin-6-yl)amino)cyclo-pentyl)((2R,6R)-2,6-dimethylmorpholino) methanone] | 6.70 to 7.60 |
| CC1(C(=O)NCCF)CC[C@@H](Nc2ncc3c(Br)nn(-c4cc(F)c5ncccc5c4)c3n2)C1 (stereo partly drawn) [(3R)-3-[[3-bromo-1-(8-fluoro-6-quinolyl)pyrazolo[3,4-d]pyrimidin-6-yl]amino]-N-(2-fluoroethyl)-1-methyl-cyclopentane-carboxamide] | 6.70 to 7.60 |
| CNC(=O)[C@]1(C)CC[C@@H](Nc2ncc3c(Br)nn(-c4ccc(-c5nnc(C(C)(C)N)o5)c(F)c4)c3n2)C1 [(1R,3R)-3-[[1-[4-[5-(1-amino-1-methyl-ethyl)-1,3,4-oxadiazol-2-yl]-3-fluoro-phenyl]-3-bromo-pyrazolo[3,4-d]pyrimidin-6-yl]amino]-N,1-dimethyl-cyclopentanecarboxamide] | 6.70 to 7.60 |
| CNC(=O)[C@]1(C)CC[C@@H](Nc2ncc3c(Br)nn(-c4cc(Cl)cc(C#N)c4)c3n2)C1 [(1R,3R)-3-[[3-bromo-1-(3-chloro-5-cyano-phenyl)pyrazolo[3,4-d]pyrimidin-6-yl]amino]-N,1-dimethyl-cyclopentanecarboxamide] | 6.70 to 7.60 |
| CNC(=O)[C@]1(CC(F)F)CC[C@@H](Nc2ncc3c(Br)nn(-c4cc(F)c5ncccc5c4)c3n2)C1 [(1R,3R)-3-[[3-bromo-1-(8-fluoro-6-quinolyl)pyrazolo[3,4-d]pyrimidin-6-yl]amino]-1-(2,2-difluoroethyl)-N-methyl-cyclopentane-carboxamide] | > 7.60 |
| O=C([C@@H]1CC[C@@H](Nc2ncc3c(Br)nn(-c4ccc5ncccc5c4)c3n2)C1)N1CC2CCC(C1)O2 [(8-oxa-3-azabicyclo[3.2.1]octan-3-yl)((1R,3R)-3-((3-bromo-1-(quinolin-6-yl)-1H-pyrazolo [3,4-d]pyrimidin-6-yl)amino)cyclopentyl) methanone] | 6.70 to 7.60 |
| CNC(=O)[C@]1(C)CC[C@@H](Nc2ncc3c(Br)nn(-c4ccc5c(c4)N(C(=O)C4CNC4)CC5)c3n2)C1 [(1R,3R)-3-[[1-[1-(azetidine-3-carbonyl)indolin-6-yl]-3-bromo-pyrazolo[3,4-d]pyrimidin-6-yl]amino]-N,1-dimethyl-cyclopentanecarboxamide] | 6.70 to 7.60 |
| CCN(C)C(=O)[C@]1(C)CC[C@@H](Nc2ncc3c(Br)nn(-c4cc(F)c5ncccc5c4)c3n2)C1 [(1R,3R)-3-[[3-bromo-1-(8-fluoro-6-quinolyl)pyrazolo[3,4-d]pyrimidin-6-yl]amino]-N-ethyl-N,1-dimethyl-cyclopentanecarboxamide] | > 7.60 |
| CNC(=O)[C@]1(C)CC[C@@H](Nc2ncc3c(Br)nn(-c4ccc(-c5nnc(C(C)CC#N)o5)cc4)c3n2)C1 (stereo partly drawn) [(1R,3R)-3-[[3-bromo-1-[4-[5-(2-cyano-1-methyl-ethyl)-1,3,4-oxadiazol-2-yl]phenyl]pyrazolo[3,4-d]pyrimidin-6-yl]amino]-N,1-dimethyl-cyclopentanecarboxamide] | > 7.60 |
| CS(=O)(=O)CCNC(=O)[C@@H]1CC[C@@H](Nc2ncc3c(Br)nn(-c4cc(C(F)F)c5ncccc5c4)c3n2)C1 [(1R,3R)-3-((3-bromo-1-(8-(difluoromethyl)quinolin-6-yl)-1H-pyrazolo[3,4-d]pyrimidin-6-yl)amino)-N-(2-(methylsulfonyl)ethyl)cyclo-pentane-1-carboxamide] | 6.30 to 6.70 |
| CC1(NC(=O)[C@@H]2CC[C@@H](Nc3ncc4c(Br)nn(-c5ccc6ncccc6c5)c4n3)C2)CCOC1 (stereo partly drawn) [(1R,3R)-3-((3-bromo-1-(quinolin-6-yl)-1H-pyrazolo[3,4-d]pyrimidin-6-yl)amino)-N-(3-methyltetrahydrofuran-3-yl)cyclopentane-1-carboxamide] | 6.70 to 7.60 |
| CNC(=O)[C@@H]1CC[C@@H](Nc2ncc3c(Br)nn(-c4cc(OC)c5ncccc5c4)c3n2)C1 [(1R,3R)-3-[[3-bromo-1-(8-methoxy-6-quinolyl)pyrazolo[3,4-d]pyrimidin-6-yl]amino]-N-methyl-cyclopentanecarboxamide] | > 7.60 |
| CNC(=O)[C@]1(C)CC[C@@H](Nc2ncc3c(Br)nn(-c4cc(F)c5ncccc5c4)c3n2)C1 [(1R,3R)-3-((3-bromo-1-(8-fluoroquinolin-6-yl)-1H-pyrazolo[3,4-d]pyrimidin-6-yl)amino)-N,1-dimethylcyclopentane-1-carboxamide] | 6.70 to 7.60 |
| O=C([C@@H]1CC[C@@H](Nc2ncc3c(Br)nn(-c4cc(F)c5ncccc5c4)c3n2)C1)N1CCN2C(=O)CC[C@@H]2C1 [(8aR)-2-[(1R,3R)-3-[[3-bromo-1-(8-fluoro-6-quinolyl)pyrazolo[3,4-d]pyrimidin-6-yl]amino]cyclopentane-carbonyl]-1,3,4,7,8,8a-hexahydro-pyrrolo[1,2-a]pyrazin-6-one] | > 7.60 |
| O=C(NC[C@H]1COCCN1)[C@@H]1CC[C@@H](Nc2ncc3c(Br)nn(-c4ccc5ncccc5c4)c3n2)C1 [(1R,3R)-3-((3-bromo-1-(quinolin-6-yl)-1H-pyrazolo[3,4-d]pyrimidin-6-yl)amino)-N-(((S)-morpholin-3-yl)methyl)cyclopentane-1-carboxamide] | 6.70 to 7.60 |
| CNC(=O)[C@]1(C)CC[C@@H](Nc2ncc3c(Br)nn(-c4ccc(-c5nnc(C(=O)N(C)CCN(C)C)s5)cc4)c3n2)C1 [5-[4-[3-bromo-6-[[(1R,3R)-3-methyl-3-(methylcarbamoyl)cyclopentyl]amino]pyrazolo[3,4-d]pyrimidin-1-yl]phenyl]-N-[2-(dimethylamino)ethyl]-N-methyl-1,3,4-thiadiazole-2-carboxamide] | 6.70 to 7.60 |
| CNC(=O)[C@]1(C)CC[C@@H](Nc2ncc3c(Br)nn(-c4ccc(C#N)c(OCC(C)O)c4)c3n2)C1 (stereo partly drawn) [(1R,3R)-3-[[3-bromo-1-[4-cyano-3-(2-hydroxypropoxy)phenyl]pyrazolo [3,4-d]pyrimidin-6-yl]amino]-N,1-dimethyl-cyclopentanecarboxamide] | 6.70 to 7.60 |
| N#Cc1cc(-n2nc(Br)c3cnc(N[C@@H]4CC[C@@H](C(=O)N[C@@H]5CCNC5)C4)nc32)cc2cccnc12 [(1R,3R)-3-((3-bromo-1-(8-cyanoquinolin-6-yl)-1H-pyrazolo[3,4-d]pyrimidin-6-yl)amino)-N-((R)-pyrrolidin-3-yl)cyclopentane-1-carboxamide] | > 7.60 |
| CCNC(=O)[C@]1(C)CC[C@@H](Nc2ncc3c(Br)nn(-c4cc(F)c5ncccc5c4)c3n2)C1 [(1R,3R)-3-[[3-bromo-1-(8-fluoro-6-quinolyl)pyrazolo[3,4-d]pyrimidin-6-yl]amino]-N-ethyl-1-methyl-cyclopentanecarboxamide] | > 7.60 |
| O=C([C@@H]1CC[C@@H](Nc2ncc3c(Br)nn(-c4cc(F)c5ncccc5c4)c3n2)C1)N1CCN2C(=O)CC[C@H]2C1 [(8aS)-2-[(1R,3R)-3-[[3-bromo-1-(8-fluoro-6-quinolyl)pyrazolo[3,4-d]pyrimidin-6-yl]amino]cyclopentane-carbonyl]-1,3,4,7,8,8a-hexahydro-pyrrolo[1,2-a]pyrazin-6-one] | > 7.60 |
| CNC(=O)[C@]1(C)CC[C@@H](Nc2ncc3c(Br)nn(-c4ccc(-c5nnc(C)s5)c(CCS(C)(=O)=O)c4)c3n2)C1 [(1R,3R)-3-[[3-bromo-1-[3-(2-methyl-sulfonylethyl)-4-(5-methyl-1,3,4-thiadiazol-2-yl)phenyl]pyrazolo[3,4-d]pyrimidin-6-yl]amino]-N,1-dimethyl-cyclopentanecarboxamide] | 6.70 to 7.60 |
